Source: ChEMBL document CHEMBL5579852, “Promising anti-proliferative indolic benzenesulfonamides alter mechanisms with sulfonamide nitrogen substituents” (Eur J Med Chem, 2024)
pIC50: −log10 of the molar value.

Tests used:
HeLa [1] = assay: Antiproliferative activity against human HeLa cells assessed as reduction in cell viability incubated for 72 hrs by MTT assay; type: functional, cell-based
CAKI-1 = assay: Antiproliferative activity against human CAKI-1 cells assessed as reduction in cell viability incubated for 72 hrs by CelltiterGlo luminescent assay; settings: CAKI-1, 72 h
[2] = Antiproliferative activity against human Melmet 5 cells assessed as reduction in cell viability incubated for 72 hrs by CelltiterGlo luminescent assay; settings: Melmet 5, 72 h
HeLa [3] = assay: Antiproliferative activity against human HeLa cells assessed as inhibition of cell growth incubated for 72 hrs in absence of verapamil by MTT assay; type: functional, cell-based
cells = settings: Homo sapiens, MDA-MB-468, 72 h
[4] = Antiproliferative activity against human WM1366 cells assessed as reduction in cell viability incubated for 72 hrs by CelltiterGlo luminescent assay; settings: WM1366, 72 h
MDA-MB-468 = assay: cells; settings: Homo sapiens, MDA-MB-468, 72 h
Description: Antiproliferative activity against human MDA-MB-468 cells assessed as reduction in cell viability incubated for 72 hrs by CelltiterGlo luminescent assay

[5] = Antiproliferative activity against human HEK293 cells assessed as reduction in cell viability incubated for 72 hrs by CelltiterGlo luminescent assay; type: toxicity, cell-based
HT-1080 = assay: Antiproliferative activity against human HT-1080 cells assessed as reduction in cell viability incubated for 72 hrs by CelltiterGlo luminescent assay; settings: HT-1080, 72 h
[6] = Antiproliferative activity against human RPE-1 cells assessed as reduction in cell viability incubated for 72 hrs by CelltiterGlo luminescent assay; type: toxicity, cell-based; settings: RPE-1 cells (TERT-RPE1)
MCF7 = assay: Antiproliferative activity against human MCF7 cells assessed as reduction in cell viability incubated for 72 hrs by CelltiterGlo luminescent assay; type: functional, cell-based; settings: MCF7, 72 h
[7] = Antiproliferative activity against human Hermes 3C cells assessed as reduction in cell viability incubated for 72 hrs by CelltiterGlo luminescent assay; type: toxicity, cell-based
BT-474 = assay: Antiproliferative activity against human BT-474 cells assessed as reduction in cell viability incubated for 72 hrs by CelltiterGlo luminescent assay; settings: BT-474, 72 h
A-375 = assay: Antiproliferative activity against human A-375 cells assessed as reduction in cell viability incubated for 72 hrs by CelltiterGlo luminescent assay; settings: A-375, 72 h
HeLa [8] = assay: Antiproliferative activity against human HeLa cells assessed as inhibition of cell growth incubated for 72 hrs in presence of verapamil by MTT assay; type: functional, cell-based
MES-SA = assay: Antiproliferative activity against human MES-SA cells assessed as reduction in cell viability incubated for 72 hrs by CelltiterGlo luminescent assay
HeLa [9] = assay: Antiproliferative activity against human HeLa cells assessed as reduction in cell viability incubated for 72 hrs by CelltiterGlo luminescent assay; type: functional, cell-based

COc1cc(S(=O)(=O)N(Cc2cccc([N+](=O)[O-])c2)c2ccc3c(ccn3C)c2)cc(OC)c1OC
pIC50 (HeLa [1]): < 6.00

COc1cc(S(=O)(=O)N(CC#N)c2ccc3c(c2)c(C=O)cn3C)cc(OC)c1OC
pIC50 (HeLa [1]): 7.64
pIC50 (CAKI-1): 7.18
pIC50 [2]: 7.90
pIC50 (HeLa [3]): 7.24
pIC50 (cells): 7.83
pIC50 [4]: 7.50
pIC50 (MDA-MB-468): 7.82
IC50 at 72 h [5]: 70.9 nM
pIC50 (HT-1080): 7.85
IC50 at 72 h [6]: 41.3 nM
pIC50 (MCF7): 7.82
IC50 at 72 h [7]: 81.3 nM
pIC50 (BT-474): 7.18
pIC50 (A-375): 7.30
pIC50 (HeLa [8]): 7.28
pIC50 (MES-SA): 7.49
pIC50 (HeLa [9]): 7.74

COc1cc(S(=O)(=O)N(CC#N)c2ccc3c(c2)c(C#N)cn3C)cc(OC)c1OC
pIC50 (HeLa [1]): 7.61
pIC50 (CAKI-1): 7.53
pIC50 [2]: 7.49
pIC50 (HeLa [3]): 7.46
pIC50 (cells): 7.46
pIC50 [4]: 7.09
pIC50 (MDA-MB-468): 7.50
IC50 at 72 h [5]: 17.7 nM
pIC50 (HT-1080): 7.18
IC50 at 72 h [6]: 76.3 nM
pIC50 (MCF7): 7.22
IC50 at 72 h [7]: 70.5 nM
pIC50 (BT-474): 7.15
pIC50 (A-375): 7.06
pIC50 (HeLa [8]): 7.57
pIC50 (MES-SA): 7.10
pIC50 (HeLa [9]): 7.11

COc1cc(S(=O)(=O)N(C)c2ccc3c(c2)c(C(=O)O)cn3C)cc(OC)c1OC
pIC50 (HeLa [1]): < 6.00

COc1cc(S(=O)(=O)Nc2ccc3c(c2)c(C(N)=O)cn3C)cc(OC)c1OC
pIC50 (HeLa [1]): 6.99
pIC50 (CAKI-1): 6.51
pIC50 [2]: 7.53
pIC50 (HeLa [3]): 6.99
pIC50 (cells): 6.55
pIC50 [4]: 6.56
pIC50 (MDA-MB-468): 7.00
IC50 at 72 h [5]: 492 nM
pIC50 (HT-1080): 7.16
IC50 at 72 h [6]: 173 nM
pIC50 (MCF7): 6.97
IC50 at 72 h [7]: 466 nM
pIC50 (BT-474): 6.90
pIC50 (A-375): 6.61
pIC50 (HeLa [8]): 7.26
pIC50 (MES-SA): 7.00
pIC50 (HeLa [9]): 7.03

COc1cc(S(=O)(=O)N(Cc2ccccc2)c2ccc3c(ccn3C)c2)cc(OC)c1OC
pIC50 (HeLa [1]): < 6.00

CCC1=C[C@@H]2CN(C1)Cc1c([nH]c3ccccc13)[C@@](C(=O)OC)(c1cc3c(cc1OC)N(C)[C@H]1[C@@](O)(C(=O)OC)[C@H](OC(C)=O)[C@]4(CC)C=CCN5CC[C@]31[C@@H]54)C2 [VINORELBINE]
pIC50 (CAKI-1): 9.52
pIC50 [2]: 10.00
pIC50 [4]: 9.05
pIC50 (MDA-MB-468): 10.00
IC50 at 72 h [5]: 15.9 nM
pIC50 (HT-1080): 10.00
IC50 at 72 h [6]: 9.3 nM
pIC50 (MCF7): 9.10
IC50 at 72 h [7]: 0.5 nM
pIC50 (BT-474): 9.52
pIC50 (A-375): 9.22
pIC50 (MES-SA): 9.40
pIC50 (HeLa [9]): 9.52

COc1cc(S(=O)(=O)N(CCCCCCBr)c2ccc3c(ccn3C)c2)cc(OC)c1OC
pIC50 (HeLa [1]): < 6.00

COc1cc(S(=O)(=O)N(CCN2CCOCC2)c2ccc3c(ccn3C)c2)cc(OC)c1OC
pIC50 (HeLa [1]): < 6.00

COc1cc(S(=O)(=O)N(C)c2ccc3c(c2)C=CC3CC#N)cc(OC)c1OC (stereo not given)
pIC50 (HeLa [1]): 6.94

COc1cc(S(=O)(=O)N(CCCC(=O)O)c2ccc3c(ccn3C)c2)cc(OC)c1OC
pIC50 (HeLa [1]): < 6.00

CCOC(=O)CCCCN(c1ccc2c(ccn2C)c1)S(=O)(=O)c1cc(OC)c(OC)c(OC)c1
pIC50 (HeLa [1]): < 6.00

COc1cc(S(=O)(=O)N(C)c2ccc3c(c2)c(C=O)cn3C)cc(OC)c1OC
pIC50 (HeLa [1]): 7.78
pIC50 (CAKI-1): 7.89
pIC50 [2]: 8.41
pIC50 (HeLa [3]): 7.74
pIC50 (cells): 7.48
pIC50 [4]: 7.94
pIC50 (MDA-MB-468): 7.76
IC50 at 72 h [5]: 50.2 nM
pIC50 (HT-1080): 8.09
IC50 at 72 h [6]: 12 nM
pIC50 (MCF7): 8.03
IC50 at 72 h [7]: 52.8 nM
pIC50 (BT-474): 7.97
pIC50 (A-375): 8.06
pIC50 (HeLa [8]): 7.84
pIC50 (MES-SA): 7.75
pIC50 (HeLa [9]): 8.28

CC(=O)O[C@@]12CO[C@@H]1C[C@H](O)[C@@]1(C)C(=O)[C@H](O)C3=C(C)[C@@H](OC(=O)[C@H](O)[C@@H](NC(=O)OC(C)(C)C)c4ccccc4)C[C@@](O)([C@@H](OC(=O)c4ccccc4)[C@H]21)C3(C)C [DOCETAXEL ANHYDROUS]
pIC50 (CAKI-1): 8.57
pIC50 [2]: 8.02
pIC50 (cells): 8.08
pIC50 [4]: 8.07
pIC50 (MDA-MB-468): 8.51
IC50 at 72 h [5]: 7.5 nM
pIC50 (HT-1080): 8.82
IC50 at 72 h [6]: 8.2 nM
pIC50 (MCF7): 8.41
IC50 at 72 h [7]: 1.7 nM
pIC50 (BT-474): 7.67
pIC50 (A-375): 8.35
pIC50 (MES-SA): 8.47
pIC50 (HeLa [9]): 9.00

COc1cc(S(=O)(=O)N(Cc2cccc(N)c2)c2ccc3c(ccn3C)c2)cc(OC)c1OC
pIC50 (HeLa [1]): < 6.00

C#CCN(c1ccc2c(ccn2C)c1)S(=O)(=O)c1cc(OC)c(OC)c(OC)c1
pIC50 (HeLa [1]): 7.10

COc1cc(S(=O)(=O)N(CCCBr)c2ccc3c(ccn3C)c2)cc(OC)c1OC
pIC50 (HeLa [1]): < 6.00

CCOC(=O)CN(c1ccc2c(ccn2C)c1)S(=O)(=O)c1cc(OC)c(OC)c(OC)c1
pIC50 (HeLa [1]): < 6.00

CCOC(=O)CCCN(c1ccc2c(ccn2C)c1)S(=O)(=O)c1cc(OC)c(OC)c(OC)c1
pIC50 (HeLa [1]): < 6.00

COc1cc(S(=O)(=O)N(CCCN2CCOCC2)c2ccc3c(ccn3C)c2)cc(OC)c1OC
pIC50 (HeLa [1]): < 6.00

COc1cc(S(=O)(=O)Nc2ccc3c(c2)C=CC3CC#N)cc(OC)c1OC (stereo not given)
pIC50 (HeLa [1]): 5.59

COc1cc(S(=O)(=O)N(CCCCN2CCOCC2)c2ccc3c(ccn3C)c2)cc(OC)c1OC
pIC50 (HeLa [1]): < 6.00

COc1cc(S(=O)(=O)N(CC(N)=O)c2ccc3c(ccn3C)c2)cc(OC)c1OC
pIC50 (HeLa [1]): 6.56

COc1cc(S(=O)(=O)N(Cc2ccc(N)cc2)c2ccc3c(ccn3C)c2)cc(OC)c1OC
pIC50 (HeLa [1]): 6.33

COc1cc(S(=O)(=O)N(CCCCC(=O)O)c2ccc3c(ccn3C)c2)cc(OC)c1OC
pIC50 (HeLa [1]): < 6.00

COc1cc(S(=O)(=O)N(CCCCCCN2CCOCC2)c2ccc3c(ccn3C)c2)cc(OC)c1OC
pIC50 (HeLa [1]): < 6.00

COc1cc(S(=O)(=O)N(CC#N)c2ccc3c(c2)c(C(N)=O)cn3C)cc(OC)c1OC
pIC50 (HeLa [1]): 7.29
pIC50 (CAKI-1): 7.01
pIC50 [2]: 7.79
pIC50 (HeLa [3]): 7.29
pIC50 (cells): 7.14
pIC50 [4]: 7.44
pIC50 (MDA-MB-468): 7.69
IC50 at 72 h [5]: 282 nM
pIC50 (HT-1080): 7.78
IC50 at 72 h [6]: 33 nM
pIC50 (MCF7): 7.31
IC50 at 72 h [7]: 88.5 nM
pIC50 (BT-474): 7.39
pIC50 (A-375): 7.32
pIC50 (HeLa [8]): 7.58
pIC50 (MES-SA): 7.85
pIC50 (HeLa [9]): 7.16

COc1cc(S(=O)(=O)N(Cc2ccc([N+](=O)[O-])cc2)c2ccc3c(ccn3C)c2)cc(OC)c1OC
pIC50 (HeLa [1]): < 6.00

COc1cc(S(=O)(=O)N(CC#N)c2ccc3c(c2)C=CC3CC#N)cc(OC)c1OC (stereo not given)
pIC50 (HeLa [1]): 6.01

COc1cc2c(c(OC)c1OC)-c1ccc(OC)c(=O)cc1[C@@H](NC(C)=O)CC2 [COLCHICINE]
pIC50 (HeLa [3]): 7.78
pIC50 (HeLa [8]): 8.03

COc1cc(S(=O)(=O)N(CCCCCBr)c2ccc3c(ccn3C)c2)cc(OC)c1OC
pIC50 (HeLa [1]): < 6.00

CC(=O)O[C@H]1C(=O)[C@@]2(C)[C@H]([C@H](OC(=O)c3ccccc3)[C@]3(O)C[C@H](OC(=O)[C@H](O)[C@@H](NC(=O)c4ccccc4)c4ccccc4)C(C)=C1C3(C)C)[C@]1(OC(C)=O)CO[C@@H]1C[C@@H]2O [PACLITAXEL]
IC50 at 72 h [5]: 26.8 nM
IC50 at 72 h [7]: 1 nM

COc1cc(S(=O)(=O)N(CCCCBr)c2ccc3c(ccn3C)c2)cc(OC)c1OC
pIC50 (HeLa [1]): < 6.00
